The record followed here is patent US20070155739A1, “Substituted bis-amide metalloprotease inhibitors” (ALANTOS PHARMACEUTICALS, INC., priority 2005, published 2007).

Like-named read-outs stand apart in the source and are kept apart here. Where only a bound is given, the exact number is not on record here.

The target in one series is MMP-13 (Homo sapiens, UniProt P45452). Nature of the series: Assay for determining MMP-13 inhibition (fluorogenic substrate). Type of series: biochemical. The procedure:
The MMP-13 inhibiting activity of the bis-amide metalloprotease inhibiting compounds of the present invention may be measured using any suitable assay known in the art. A standard in vitro assay for MMP-13 inhibiting activity is described in Example 999 and a description of the microsomal stability assay is described in Example 999a.
Assay for Determining MMP-13 Inhibition
The typical assay for MMP-13 activity is carried out in assay buffer comprised of 50 mM Tris, pH 7.5, 150 mM NaCl, 5 mM CaCl2 and 0.05% Brij-35. Different concentrations of tested compounds are prepared in assay buffer in 50 μL aliquots. 10 μL of 40 nM stock solution of MMP-13 enzyme is added to the compound solution. The mixture of enzyme and compound in assay buffer is thoroughly mixed and incubated for 20 minutes at room temperature. Upon the completion of incubation, the assay is started by addition of 40 μL of 12.5 μM stock solution of MMP-13 fluorogenic substrate (Calbiochem Cat. No. 444235). The time-dependent increase in fluorescence is measured at the 325 nm excitation and 393 nm emission by automatic plate multireader. The IC50 values are calculated from the initial reaction rates. Selectivity assays were run in a similar manner using MMP-1, MMP-3, MMP-8, MMP-12, MMP-14 and TACE.

A short description of series [1]: Microsomal stability, rat microsomes. Type of series: in vitro ADME. Particulars: rat microsomes 0.3 mg/mL, 1 μM compound, 60 min at 37° C. As for the experimental part: (§1) Assay for Microsomal Stability
(§2) For microsomal stability testing 1 μM conzentration of compound and human or rat microsomes (0.3 mg/mL, BD bioscience) are used in the in vitro assay. To ensure proper energy supply for microsomal degradation of compound, an energy regenerating system comprised of NADP, glucose 6-phosphate and glucose 6-phosphate dehydrogenase is added to samples and suspension is incubated for 60 min at 37° C. in rotary shaker. After incubation time, acetonitrile containing internal standard is added to stop metabolization by precipitation of proteins. After centrifugation step, supernatant is analysed by LC-MS/MS and percentage of compound remaining is analysed.

Series [2] in a line: Microsomal stability, human microsomes. Format: in vitro ADME. Particulars: human microsomes 0.3 mg/mL, 1 μM compound, 60 min at 37° C. The procedure:
as §1, §2

Series [3] is described as follows: Microsomal stability, comparison in text (species not stated). Particulars: compared with unsubstituted Example 1040d. Type of series: in vitro ADME. The procedure:
as §2

The nature of series [4]: Cell viability, comparison. As to conditions: compared with unsubstituted Example 1040d. Format: cell-based.
[5] abbreviates: Table 2, methyl substitution at R^2 or R^3, read-out: IC50 (nM), Comparison of MMP-13 Activity Versus Location of Substituent (R^2 or R^3).
Setting [6] is: Table 1, read-out: IC50 (nM), Summary of MMP-13 Activity for Compounds of Formula I.

What is called IC50 is the concentration that inhibits the measured activity by half. As for `COc1cccc(CNC(=O)c2cc(C(=O)N[C@H](C)c3ccc(-c4nnn[nH]4)cc3)ncn2)c1` (stereo in doubt) [Example 1006], at MMP-13 (setting [5]), the concentration for half-maximal inhibition (IC50) was more than 100 nM. Moreover, the “Rat (%), microsomal stability, percentage of compound remaining” value (“Rat (%) … percentage of compound remaining” below) in series [1] came to 70%. Also, the “Human (%), microsomal stability, percentage of compound remaining” value (from here on “Human (%) … percentage of compound remaining”) in series [2] stood at 93%.

Regarding `Cc1cc(CNC(=O)c2cc(C(=O)N[C@@H](C)c3ccc(C(=O)O)cc3)ncn2)ccc1F` [Example 1000], the IC50 on MMP-13 (setting [6]) is less than 200 nM.

Turning to `Cc1cc(CNC(=O)c2cc(C(=O)N[C@@H](C(N)=O)c3ccc(-c4nnn[nH]4)cc3)ncn2)ccc1F` [Example 1002], the IC50 on MMP-13 (setting [6]) was less than 10 nM. Same read-out and setting: to `O=C(NCc1ccc(F)cc1)c1cc(C(=O)N[C@@H](CO)c2ccc(-c3nnn[nH]3)cc2)ncn1` [Example 1004] belongs less than 200 nM. Turning to `COc1cccc(CNC(=O)c2cc(C(=O)N[C@@H](C)c3ccc(-c4nnn[nH]4)cc3)ncn2)c1` [Example 1005], on MMP-13 (setting [5]), the 50% inhibitory concentration (IC50) was less than 10 nM. Further, the “microsomal stability, in words” value in series [3] is on record as “improvements”. Further, the “cell viability, in words” value in series [4] is on record as “improvements”. Take `Cc1cc(CNC(=O)c2cc(C(=O)N[C@@H](C)c3ccc(-c4nnn[nH]4)cc3)ncn2)ccc1F` [Example 1007]: on MMP-13 (setting [6]), the IC50 is less than 10 nM. Take `C[C@H](NC(=O)c1cc(C(=O)NCc2ccc(F)cc2)ncn1)c1ccc(-c2nnn[nH]2)cc1` [Example 1007c]: in series [1], the “Rat (%) … percentage of compound remaining” value is recorded as 90%. In addition, the “Human (%) … percentage of compound remaining” value in series [2] is on record as 100%. As to `C[C@H](NC(=O)c1cc(C(=O)NCc2cccs2)ncn1)c1ccc(-c2nnn[nH]2)cc1` [Example 1007d], the IC50 at MMP-13 (setting [6]) is less than 1000 nM. The same measure, in the same setting: to `CCc1cc(CNC(=O)c2cc(C(=O)N[C@@H](C)c3ccc(-c4nnn[nH]4)cc3)ncn2)cs1` [Example 1007o] belongs less than 200 nM; to `Cc1cc(CNC(=O)c2cc(C(=O)N[C@@H](C)c3ccc(-c4noc(CCC(=O)O)n4)cc3)ncn2)ccc1F` [Example 1021], less than 200 nM. On the same count and under the same terms, to `Cc1cc(CNC(=O)c2cc(C(=O)N[C@@H](C)c3ccc(C(=O)N4CCOCC4)cc3)ncn2)ccc1F` [Example 1028e] belongs less than 200 nM. `C[C@@H](NC(=O)c1cc(C(=O)NCc2ccc(-c3nnn[nH]3)cc2)ncn1)c1ccccc1` [Example 1040a]: the IC50 at MMP-13 (setting [5]) was more than 100 nM. With `C[C@H](NC(=O)c1cc(C(=O)NCc2ccc(-c3nnn[nH]3)cc2)ncn1)c1ccccc1` [Example 1040b], the IC50 at MMP-13 (setting [5]) is less than 10 nM. Moreover, in series [1], the “Rat (%) … percentage of compound remaining” value was 96%. Moreover, the “Human (%) … percentage of compound remaining” value in series [2] was 96%. For `COc1cccc(CNC(=O)c2cc(C(=O)NCc3ccc(-c4nnn[nH]4)cc3)ncn2)c1` [Example 1040d, pyrimidine-4,6-dicarboxylic acid 4-(3-methoxybenzylamide) 6-[4-(1H-tetrazol-5-yl)-benzylamide]], the “Rat (%) … percentage of compound remaining” value in series [1] was determined as 38%. For the same compound, the “Human (%) … percentage of compound remaining” value in series [2] was 75%. In the same order, the values of `O=C(NCc1ccc(F)cc1)c1cc(C(=O)NCc2ccc(-c3nnn[nH]3)cc2)ncn1` [Example 1040e] are 58% and 98%.
